# Legend:
# mfT1R2a/mfT1R3 T105E = mfT1R2a/mfT1R3 T105E (Oryzias latipes, UniProt Q2MHK2+Q2MHK5, Q2MHK2:T105E); experiment: cell-based; settings: EC50, [Cl-]o=10 mM; unit inferred
# Experimental: (§1) The buffers with lower Cl^− were prepared by progressively replacing NaCl, KCl, CaCl2 and MgCl2 in the buffer with gluconate equivalents[20]. The pH was adjusted to 7.4 with NaOH. Ligands were diluted with the assay buffers at the desired concentrations.
# (§2) Measurements of the responses of the cells by cell-based assay based on the intracellular Ca^2+ mobilization were carried out as described previously with some modifications[20],[34],[46],[47]. Cell lines stably expressing T1R2, T1R3 and chimeric G-protein α-subunit, G16gust44[48], were constructed using the Flp-In pcDNA5/FRT complete system (Thermo Fisher Scientific, Waltham, MA, USA) described in our previous studies[34],[46]. […] Fluorescence changes (i.e., excitation at 485 nm and emission at 525 nm with a cutoff at 515 nm) were monitored at 2 s intervals. […] The response of each well was determined as ∆RFU (delta relative fluorescent units), which was calculated as (maximum fluorescent value)—(minimum fluorescent value). […] Dose‒response fitting curves were calculated by Prism 9 (GraphPad Software, San Diego, CA) using nonlinear regression (log(agonist) vs. response—variable slope), based on the integrated data from the several independent experiments.
# mfT1R2a K295P/mfT1R3 = mfT1R2a K295P/mfT1R3 (Oryzias latipes, UniProt Q2MHK2+Q2MHK5, Q2MHK5:K295P); experiment: cell-based; settings: EC50, [Cl-]o=10 mM; no unit printed with values, x-axis title L-Gln [M]
# Experimental: as §1, §2
# mfT1R2a/mfT1R3 = target: T1, mfT1R2a/mfT1R3 (Oryzias latipes, UniProt Q2MHK2+Q2MHK5); experiment: Ca2+ mobilization dose-response assay, stable cells expressing mfT1R2a/mfT1R3 with G16gust44
# T1 sequence (Q2MHK5 20-819): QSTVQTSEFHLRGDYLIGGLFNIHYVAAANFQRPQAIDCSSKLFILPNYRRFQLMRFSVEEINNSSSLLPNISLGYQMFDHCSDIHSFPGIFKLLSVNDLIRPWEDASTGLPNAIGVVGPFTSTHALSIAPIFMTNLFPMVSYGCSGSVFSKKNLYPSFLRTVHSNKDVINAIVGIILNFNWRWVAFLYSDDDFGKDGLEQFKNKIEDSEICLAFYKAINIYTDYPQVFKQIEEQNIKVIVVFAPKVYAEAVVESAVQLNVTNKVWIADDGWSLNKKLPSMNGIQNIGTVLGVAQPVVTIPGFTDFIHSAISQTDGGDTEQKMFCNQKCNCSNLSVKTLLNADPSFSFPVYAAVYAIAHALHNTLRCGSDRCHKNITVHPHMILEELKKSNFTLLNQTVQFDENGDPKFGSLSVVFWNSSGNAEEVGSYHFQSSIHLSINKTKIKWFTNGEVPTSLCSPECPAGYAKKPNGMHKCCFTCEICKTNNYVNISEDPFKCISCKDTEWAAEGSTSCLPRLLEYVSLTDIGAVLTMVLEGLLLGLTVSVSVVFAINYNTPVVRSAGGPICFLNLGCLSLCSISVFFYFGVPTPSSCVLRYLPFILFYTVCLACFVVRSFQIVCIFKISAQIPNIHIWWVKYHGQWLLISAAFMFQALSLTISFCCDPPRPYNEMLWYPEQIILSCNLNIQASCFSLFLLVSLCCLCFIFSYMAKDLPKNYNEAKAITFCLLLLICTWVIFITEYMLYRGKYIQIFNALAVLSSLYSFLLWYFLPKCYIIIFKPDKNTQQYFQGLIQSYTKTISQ
# T1 sequence (Q2MHK2 20-853): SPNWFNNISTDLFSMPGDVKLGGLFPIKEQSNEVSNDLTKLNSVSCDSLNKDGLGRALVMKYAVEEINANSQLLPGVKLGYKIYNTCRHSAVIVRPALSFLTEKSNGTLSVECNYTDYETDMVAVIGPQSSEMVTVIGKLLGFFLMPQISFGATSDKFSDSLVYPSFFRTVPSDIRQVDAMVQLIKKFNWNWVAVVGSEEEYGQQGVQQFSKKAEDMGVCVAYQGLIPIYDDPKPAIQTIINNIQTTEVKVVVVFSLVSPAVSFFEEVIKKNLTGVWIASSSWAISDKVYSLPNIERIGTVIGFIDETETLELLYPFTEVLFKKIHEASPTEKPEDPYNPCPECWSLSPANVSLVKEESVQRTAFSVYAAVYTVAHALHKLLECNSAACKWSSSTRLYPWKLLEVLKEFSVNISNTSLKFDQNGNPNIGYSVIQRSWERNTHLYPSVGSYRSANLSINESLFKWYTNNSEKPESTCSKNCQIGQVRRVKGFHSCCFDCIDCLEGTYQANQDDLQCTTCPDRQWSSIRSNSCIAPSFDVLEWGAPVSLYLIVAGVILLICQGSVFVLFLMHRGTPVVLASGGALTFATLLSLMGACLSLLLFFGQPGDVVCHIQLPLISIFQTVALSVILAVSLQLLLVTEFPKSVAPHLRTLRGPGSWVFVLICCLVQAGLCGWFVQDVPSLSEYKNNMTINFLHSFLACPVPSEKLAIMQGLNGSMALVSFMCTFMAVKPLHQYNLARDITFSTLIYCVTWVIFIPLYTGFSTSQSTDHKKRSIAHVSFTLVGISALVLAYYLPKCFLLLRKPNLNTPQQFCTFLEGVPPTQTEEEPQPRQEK
# Experimental: as §1
# (§3) Measurements of the responses of the cells by cell-based assay based on the intracellular Ca^2+ mobilization were carried out as described previously with some modifications[20],[34],[46],[47]. […] The cells were seeded in 96-well plates (clear-bottomed CellBIND surface plate, Corning, Glendale, AZ, USA) coated with ε-poly-L-lysine (Cosmo Bio, Tokyo, Japan) at approximately 70,000 cells per well. After 20 h, the medium was removed and replaced with high Cl^− buffer. After 3 h 30 min incubation at 27 °C, cells were loaded with 5 µM calcium-indicator dye Fluo-8 AM (AAT Bioquest, Sunnyvale, CA, USA) diluted in high Cl^− buffer. After incubation for 30 min at 27 °C, the cells were washed with buffers containing appropriate concentrations of Cl^−. The cellular assay was initiated after 3–5 min of resting and was completed within 5 min. The measurements were made using FlexStation 3 (Molecular Devices, Sunnyvale, CA, USA) at 27 °C. Fluorescence changes (i.e., excitation at 485 nm and emission at 525 nm with a cutoff at 515 nm) were monitored at 2 s intervals. A 100-µL aliquot of assay buffer supplemented with 2 × ligands was added at 20 s, and scanning was continued for an additional 40 s. The response of each well was determined as ∆RFU (delta relative fluorescent units), which was calculated as (maximum fluorescent value)—(minimum fluorescent value). […] Such normalized data from more than three independent experiments are reported as the mean ± standard error of the mean (SEM). Dose‒response fitting curves were calculated by Prism 9 (GraphPad Software, San Diego, CA) using nonlinear regression (log(agonist) vs. response—variable slope), based on the integrated data from the several independent experiments.
# mfT1R2a K265A/mfT1R3 = mfT1R2a K265A/mfT1R3 (Oryzias latipes, UniProt Q2MHK2+Q2MHK5, Q2MHK5:K265A); experiment: cell-based; settings: EC50, [Cl-]o=10 mM; no unit printed with values, x-axis title L-Gln [M]
# Experimental: as §1
# (§4) Measurements of the responses of the cells by cell-based assay based on the intracellular Ca^2+ mobilization were carried out as described previously with some modifications[20],[34],[46],[47]. […] The cells were seeded in 96-well plates (clear-bottomed CellBIND surface plate, Corning, Glendale, AZ, USA) coated with ε-poly-L-lysine (Cosmo Bio, Tokyo, Japan) at approximately 70,000 cells per well. After 20 h, the medium was removed and replaced with high Cl^− buffer. […] Fluorescence changes (i.e., excitation at 485 nm and emission at 525 nm with a cutoff at 515 nm) were monitored at 2 s intervals. […] The response of each well was determined as ∆RFU (delta relative fluorescent units), which was calculated as (maximum fluorescent value)—(minimum fluorescent value). […] Dose‒response fitting curves were calculated by Prism 9 (GraphPad Software, San Diego, CA) using nonlinear regression (log(agonist) vs. response—variable slope), based on the integrated data from the several independent experiments.
# mfT1R2a K265E/mfT1R3 = mfT1R2a K265E/mfT1R3 (Oryzias latipes, UniProt Q2MHK2+Q2MHK5, Q2MHK5:K265E); experiment: cell-based; settings: EC50, [Cl-]o=10 mM; no unit printed with values, x-axis title L-Gln [M]
# Experimental: as §1, §2
# mfT1R2b/mfT1R3 = experiment: Ca2+ mobilization dose-response assay, stable cells expressing mfT1R2b/mfT1R3 with G16gust44; settings: 10 mM vs 141.4 mM Cl- buffer
# Experimental: as §1, §4
# mfT1R2c/mfT1R3 T105E = mfT1R2c/mfT1R3 T105E (Oryzias latipes, UniProt Q2MHK2+Q2MHK3, Q2MHK2:T105E); experiment: cell-based; settings: EC50, [Cl-]o=10 mM; unit inferred
# Experimental: as §1, §4
# zfT1R2b/zfT1R3 = target: T2, zfT1R2b/zfT1R3 (Danio rerio, UniProt A0A8M1NDZ5+Q2MHK9); experiment: Ca2+ mobilization dose-response assay, stable cells expressing zfT1R2b/zfT1R3 with G16gust44; settings: 10 mM vs 141.4 mM Cl- buffer
# T2 sequence (A0A8M1NDZ5 18-823): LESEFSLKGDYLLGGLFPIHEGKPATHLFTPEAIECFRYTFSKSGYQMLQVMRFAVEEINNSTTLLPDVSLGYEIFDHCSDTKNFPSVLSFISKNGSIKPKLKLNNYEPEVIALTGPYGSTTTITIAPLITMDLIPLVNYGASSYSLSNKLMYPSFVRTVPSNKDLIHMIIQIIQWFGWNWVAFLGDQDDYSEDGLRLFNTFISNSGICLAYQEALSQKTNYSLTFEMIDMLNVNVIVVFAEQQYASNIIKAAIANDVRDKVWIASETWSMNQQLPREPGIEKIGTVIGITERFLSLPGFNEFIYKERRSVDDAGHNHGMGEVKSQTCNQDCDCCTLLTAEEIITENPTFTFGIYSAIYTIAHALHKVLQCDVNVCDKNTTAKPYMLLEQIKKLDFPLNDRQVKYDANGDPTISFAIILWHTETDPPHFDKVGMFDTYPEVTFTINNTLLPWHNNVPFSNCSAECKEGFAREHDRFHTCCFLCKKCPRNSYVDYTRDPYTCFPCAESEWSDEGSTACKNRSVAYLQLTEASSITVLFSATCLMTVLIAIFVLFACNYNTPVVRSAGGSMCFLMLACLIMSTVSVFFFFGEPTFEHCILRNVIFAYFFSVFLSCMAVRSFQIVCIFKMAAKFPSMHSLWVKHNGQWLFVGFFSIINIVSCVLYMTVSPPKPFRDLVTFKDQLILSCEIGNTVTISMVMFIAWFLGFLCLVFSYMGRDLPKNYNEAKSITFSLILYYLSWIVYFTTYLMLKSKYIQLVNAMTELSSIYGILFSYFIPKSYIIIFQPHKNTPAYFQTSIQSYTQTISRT
# T2 sequence (Q2MHK9 25-850): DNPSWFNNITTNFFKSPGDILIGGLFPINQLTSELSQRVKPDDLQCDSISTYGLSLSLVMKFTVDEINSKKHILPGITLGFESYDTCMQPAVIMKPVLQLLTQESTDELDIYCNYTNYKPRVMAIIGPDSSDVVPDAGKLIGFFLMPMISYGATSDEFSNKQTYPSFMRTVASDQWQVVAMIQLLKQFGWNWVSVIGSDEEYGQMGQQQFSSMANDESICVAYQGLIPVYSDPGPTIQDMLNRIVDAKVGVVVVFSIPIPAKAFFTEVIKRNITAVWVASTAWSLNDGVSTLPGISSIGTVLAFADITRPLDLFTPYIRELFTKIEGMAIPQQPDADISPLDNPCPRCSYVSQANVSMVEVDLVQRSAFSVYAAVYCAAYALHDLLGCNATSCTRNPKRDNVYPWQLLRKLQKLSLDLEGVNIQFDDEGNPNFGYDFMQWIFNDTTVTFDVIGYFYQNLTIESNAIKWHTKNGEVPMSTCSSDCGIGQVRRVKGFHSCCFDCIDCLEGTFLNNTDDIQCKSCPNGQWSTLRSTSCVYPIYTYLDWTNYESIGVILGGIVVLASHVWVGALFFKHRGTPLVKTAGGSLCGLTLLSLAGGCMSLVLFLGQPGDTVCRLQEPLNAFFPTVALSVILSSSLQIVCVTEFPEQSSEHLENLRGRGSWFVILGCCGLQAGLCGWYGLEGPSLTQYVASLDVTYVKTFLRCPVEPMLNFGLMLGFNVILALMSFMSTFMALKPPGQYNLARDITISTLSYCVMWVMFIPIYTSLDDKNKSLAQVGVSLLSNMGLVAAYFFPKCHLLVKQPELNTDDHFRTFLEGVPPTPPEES
# Experimental: as §1, §3
# mfT1R2b E260A/mfT1R3 = type: cell-based, medaka fish; settings: 10 mM vs high Cl- buffer
# Experimental: as §1, §4
# mfT1R2c/mfT1R3 = mfT1R2c/mfT1R3 (Oryzias latipes, UniProt Q2MHK2+Q2MHK3); experiment: Ca2+ mobilization dose-response assay, stable cells expressing mfT1R2c/mfT1R3 with G16gust44
# Experimental: as §1, §3
# mfT1R2b E260K/mfT1R3 = type: cell-based, medaka fish; settings: 10 mM vs high Cl- buffer
# Experimental: as §1, §4
# zfT1R2a/zfT1R3 = target: T3, zfT1R2a/zfT1R3 (Danio rerio, UniProt A0A8M1N8F9+Q2MHK9); experiment: Ca2+ mobilization dose-response assay, stable cells expressing zfT1R2a/zfT1R3 with G16gust44
# T3 sequence (A0A8M1N8F9 26-825): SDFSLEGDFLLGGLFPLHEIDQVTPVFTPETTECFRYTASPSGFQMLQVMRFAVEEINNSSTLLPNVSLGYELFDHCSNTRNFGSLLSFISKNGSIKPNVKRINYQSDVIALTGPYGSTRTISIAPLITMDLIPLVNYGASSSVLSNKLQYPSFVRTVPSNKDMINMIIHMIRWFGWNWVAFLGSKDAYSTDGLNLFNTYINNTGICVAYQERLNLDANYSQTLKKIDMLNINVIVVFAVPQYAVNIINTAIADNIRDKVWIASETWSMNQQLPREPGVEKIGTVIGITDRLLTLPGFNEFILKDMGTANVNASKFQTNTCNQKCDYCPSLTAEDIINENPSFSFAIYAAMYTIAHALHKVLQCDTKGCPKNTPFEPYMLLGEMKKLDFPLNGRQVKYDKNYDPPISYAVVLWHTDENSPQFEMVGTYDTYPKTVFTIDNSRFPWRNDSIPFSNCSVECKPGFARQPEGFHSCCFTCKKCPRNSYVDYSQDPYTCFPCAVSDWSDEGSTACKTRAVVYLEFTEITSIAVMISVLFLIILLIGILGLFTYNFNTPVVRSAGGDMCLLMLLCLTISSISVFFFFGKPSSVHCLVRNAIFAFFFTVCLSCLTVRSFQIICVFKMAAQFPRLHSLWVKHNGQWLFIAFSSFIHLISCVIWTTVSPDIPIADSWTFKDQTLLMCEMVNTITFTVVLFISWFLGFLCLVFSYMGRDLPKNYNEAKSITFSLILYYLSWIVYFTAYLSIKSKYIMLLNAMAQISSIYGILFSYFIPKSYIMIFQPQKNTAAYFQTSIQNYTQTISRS
# T3 sequence (Q2MHK9 25-850): T2 sequence (Q2MHK9 25-850)
# Experimental: as §1, §3
# [1] = EC50, [Cl-]o=10 mM, unit inferred
# Chain of mfT1R2c/mfT1R3 (Q2MHK3 22-818, one chain of several): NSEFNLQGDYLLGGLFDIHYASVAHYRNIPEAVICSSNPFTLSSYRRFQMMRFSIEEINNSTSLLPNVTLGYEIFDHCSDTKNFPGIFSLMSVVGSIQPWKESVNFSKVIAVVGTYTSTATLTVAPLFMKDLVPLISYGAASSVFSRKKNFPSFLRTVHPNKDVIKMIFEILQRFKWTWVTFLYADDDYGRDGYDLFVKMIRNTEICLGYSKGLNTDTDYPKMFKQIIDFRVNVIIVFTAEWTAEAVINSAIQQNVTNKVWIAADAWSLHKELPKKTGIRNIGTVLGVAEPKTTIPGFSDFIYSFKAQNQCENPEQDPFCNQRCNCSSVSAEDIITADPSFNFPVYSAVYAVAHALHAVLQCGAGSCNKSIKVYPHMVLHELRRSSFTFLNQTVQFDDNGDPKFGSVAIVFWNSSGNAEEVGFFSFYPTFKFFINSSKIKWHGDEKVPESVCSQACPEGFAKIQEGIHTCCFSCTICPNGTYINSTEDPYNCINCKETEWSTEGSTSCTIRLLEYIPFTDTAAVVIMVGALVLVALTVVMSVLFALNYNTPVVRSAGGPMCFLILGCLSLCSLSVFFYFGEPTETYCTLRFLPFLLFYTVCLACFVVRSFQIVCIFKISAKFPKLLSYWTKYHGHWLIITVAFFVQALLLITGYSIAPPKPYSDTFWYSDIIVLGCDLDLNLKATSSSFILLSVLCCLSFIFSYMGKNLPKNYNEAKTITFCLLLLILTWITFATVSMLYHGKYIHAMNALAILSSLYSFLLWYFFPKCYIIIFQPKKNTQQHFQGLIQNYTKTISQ
# Chain of mfT1R2a K265E/mfT1R3 (Q2MHK5 entry or part of it K265E, one chain of several): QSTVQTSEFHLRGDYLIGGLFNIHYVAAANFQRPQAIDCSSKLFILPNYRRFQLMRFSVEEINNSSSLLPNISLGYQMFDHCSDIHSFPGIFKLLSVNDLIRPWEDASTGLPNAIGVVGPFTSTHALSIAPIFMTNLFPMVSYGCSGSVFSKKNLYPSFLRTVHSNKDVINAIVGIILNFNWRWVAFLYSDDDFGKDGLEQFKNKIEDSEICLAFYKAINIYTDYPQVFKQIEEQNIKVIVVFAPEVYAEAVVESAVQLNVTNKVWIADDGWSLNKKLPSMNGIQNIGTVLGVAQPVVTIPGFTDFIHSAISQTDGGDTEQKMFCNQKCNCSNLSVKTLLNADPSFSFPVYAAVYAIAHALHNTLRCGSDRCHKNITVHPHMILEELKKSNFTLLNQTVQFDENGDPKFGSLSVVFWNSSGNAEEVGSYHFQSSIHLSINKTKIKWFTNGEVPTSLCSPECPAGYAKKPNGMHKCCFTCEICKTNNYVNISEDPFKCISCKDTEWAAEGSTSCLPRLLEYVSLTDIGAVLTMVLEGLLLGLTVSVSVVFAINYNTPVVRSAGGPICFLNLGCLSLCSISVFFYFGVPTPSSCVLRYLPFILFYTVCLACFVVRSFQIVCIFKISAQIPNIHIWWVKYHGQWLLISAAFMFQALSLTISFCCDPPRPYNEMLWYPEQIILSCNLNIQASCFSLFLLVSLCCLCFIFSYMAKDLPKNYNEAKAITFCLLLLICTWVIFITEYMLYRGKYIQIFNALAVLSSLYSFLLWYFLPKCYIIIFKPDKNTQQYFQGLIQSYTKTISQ
# Chain of mfT1R2c/mfT1R3 T105E (Q2MHK2 entry or part of it T105E): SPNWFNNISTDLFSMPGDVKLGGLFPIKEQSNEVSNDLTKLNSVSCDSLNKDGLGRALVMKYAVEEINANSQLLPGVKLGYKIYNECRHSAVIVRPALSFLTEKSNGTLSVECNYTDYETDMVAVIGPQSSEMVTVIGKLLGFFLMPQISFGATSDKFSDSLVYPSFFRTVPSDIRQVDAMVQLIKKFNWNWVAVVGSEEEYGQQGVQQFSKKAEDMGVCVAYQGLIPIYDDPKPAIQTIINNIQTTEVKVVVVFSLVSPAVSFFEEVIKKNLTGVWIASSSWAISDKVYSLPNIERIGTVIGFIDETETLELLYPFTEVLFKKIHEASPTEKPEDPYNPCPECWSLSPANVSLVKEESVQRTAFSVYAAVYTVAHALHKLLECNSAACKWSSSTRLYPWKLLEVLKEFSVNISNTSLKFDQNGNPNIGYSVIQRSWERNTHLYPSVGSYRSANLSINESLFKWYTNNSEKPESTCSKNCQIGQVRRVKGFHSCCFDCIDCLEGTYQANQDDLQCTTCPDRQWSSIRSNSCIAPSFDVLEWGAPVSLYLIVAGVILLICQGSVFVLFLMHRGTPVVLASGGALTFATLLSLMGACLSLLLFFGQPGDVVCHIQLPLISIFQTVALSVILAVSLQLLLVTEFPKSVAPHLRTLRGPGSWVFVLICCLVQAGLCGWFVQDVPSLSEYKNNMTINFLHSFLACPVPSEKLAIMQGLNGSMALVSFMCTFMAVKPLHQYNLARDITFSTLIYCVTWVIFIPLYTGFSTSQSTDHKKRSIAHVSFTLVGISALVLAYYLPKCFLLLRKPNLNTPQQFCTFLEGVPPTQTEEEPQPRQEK
# Chain of mfT1R2c/mfT1R3 T105E (Q2MHK3 entry or part of it): as the sequence (Q2MHK3 22-818, one chain of several) above
# Chain of mfT1R2a K295P/mfT1R3 (Q2MHK5 entry or part of it K295P, one chain of several): as the sequence (Q2MHK5 entry or part of it K265E, one chain of several) above, with E246K, K276P counted along it
# Chain of mfT1R2a K265A/mfT1R3 (Q2MHK5 entry or part of it K265A, one chain of several): as the sequence (Q2MHK5 entry or part of it K265E, one chain of several) above, with E246A counted along it
# Chain of mfT1R2a/mfT1R3 T105E (Q2MHK2 entry or part of it T105E, one chain of several): as the sequence (Q2MHK2 entry or part of it T105E) above
SMILES,EC50 (mfT1R2a/mfT1R3 T105E) [µM],EC50 (mfT1R2a K295P/mfT1R3) [M],EC50 in 10 mM Cl- buffer relative to high Cl- buffer (mfT1R2a/mfT1R3; 10 mM vs 141.4 mM Cl- buffer),EC50 (mfT1R2a/mfT1R3; [1]) [µM],EC50 (mfT1R2a K265A/mfT1R3) [M],EC50 (mfT1R2a K265E/mfT1R3) [M],effect of anionic buffer composition on sensitivity (mfT1R2b/mfT1R3),EC50 (mfT1R2c/mfT1R3 T105E) [µM],EC50 in 10 mM Cl- buffer relative to high Cl- buffer (zfT1R2b/zfT1R3),effect of [Cl-]o on sensitivity (mfT1R2b E260A/mfT1R3),increase in EC50 in 10 mM Cl- buffer compared to high Cl- buffer (mfT1R2c/mfT1R3; 10 mM vs 141.4 mM Cl- buffer),EC50 (mfT1R2c/mfT1R3; [1]) [µM],change of EC50 value with [Cl-]o (mfT1R2c/mfT1R3; range from 10 to 80 mM [Cl-]o),effect of [Cl-]o on sensitivity (mfT1R2b E260K/mfT1R3),EC50 in 10 mM Cl- buffer relative to high Cl- buffer (zfT1R2a/zfT1R3; 10 mM vs 141.4 mM Cl- buffer),EC50 (zfT1R2a/zfT1R3; [1]) [µM]
"NC(=O)CC[C@H](N)C(=O)O [L-Gln, L-glutamine]",864,0.000368,approximately 6.5 times higher,403,0.000283,0.000208,–,–,–,–,–,–,–,–,–,–
"O=C(O)[C@@H]1CCCN1 [L-Pro, L-proline]",–,–,–,–,–,–,hardly affected,26.3,approximately half,hardly affected,approximately threefold increase,15,almost unchanged,hardly affected,approximately 5 times higher,437

# Reference: article PMC10539361, “Allosteric modulation of the fish taste receptor type 1 (T1R) family by the extracellular chloride ion” (Scientific Reports, 2023)
